# Where two headings read alike, the source gives them in different places. Marks after values point to notes of the source that are not given here.
# How the values were obtained:
# CGR8-2Luc ESCs = tested on: CGR8-2Luc ESCs
# Description: (§1) Fig. 1 Synopsis of experimental protocols. The impact of compounds on neural promoter activity (FLuc, Firefly Luciferase under the control of the Tα1 promoter), general promoter activity (RLuc, Renilla Luciferase under the control of the EF1α promoter), and amount of DNA (PI, propidium iodide fluorescence in cell homogenates) was investigated in undifferentiated mouse embryonic pluripotent stem cells (ESCs) and on ESC-derived neurons. Arrows indicate the time of measurement of the three parameters. a Protocol for testing compounds effects on ESCs. CGR8-2Luc cells were plated on gelatin-coated 96-well plates in maintenance medium (BHK21 medium containing 10 % FCS, L-glutamine, NEAA, P/S, and LIF). Twenty-four hours later, cells were exposed to compounds for forty-eight hours. b Protocol for testing compounds on ESC-derived neurons. CGR8-2Luc cells were co-cultured with MS5 cells to induce neural differentiation in DMEM medium containing 15 % KO-serum, NEAA, β-mercaptoethanol, and P/S. On day 5, cells were detached and seeded on polyornithine-coated plates in DMEM medium containing N2 supplement, bFGF, and P/S; compound exposure was from day 6 to day 8
# (§2) To test compounds on ESC-derived neurons, neuronal differentiation was carried out as previously described (Suter et al. [2009]; Xu et al. [2014]). Briefly, CGR8-2Luc cells were seeded on irradiated bone marrow-derived stromal MS5 cells and cultivated for 4 days in DMEM medium containing 15 % Knock-out™ Serum Replacement, non-essential amino acids, beta-mercaptoethanol, and penicillin/streptomycin. At day 5, cells were then re-plated (3 × 10^5 cells/cm^2) on polyornithine-coated 96-well plates in N2 medium containing DMEM, N2 supplement, penicillin/streptomycin, and 10 ng/ml basic human fibroblast growth factor (bFGF) (Invitrogen). […] To assess toxicity of compounds on undifferentiated pluripotent stem cells (ESCs), CGR8-2Luc cells were plated at 45,000 cells/cm^2 on 0.1 % gelatin-coated dishes in BHK21 medium, supplemented with 10 % fetal calf serum, L-glutamine, non-essential amino acids, penicillin/streptomycin, and leukemia inhibitory factor (LIF). After 24 h, compounds were added and incubated for 48 h, before luciferase expression and PI fluorescence were analyzed. In all experiments, methylmercury was used as a positive control at a concentration of 5 µM.
# (§3) After measurement of luciferase activity, DNA quantity was determined by PI assay, as previously described (Xu et al. [2014]). PI was added to cell homogenates after the luciferase test, at a final concentration of 50 µg/ml and incubated for 2 h. After incubation, fluorescence intensity was measured on a Flexstation 3 microplate reader (Excitation: 544 nm ± 15 nm; Emission: 620 nm ± 15 nm). Results are expressed as percentage of control. Propidium iodide (PI) measures total DNA content as an approximation of the cell number. A decrease in PI fluorescence was interpreted as a decrease in cell number and therefore throughout the text referred to as cytotoxicity.
# (§4) Lowest adverse effect level (LOAEL) was defined as the lowest tested concentrations that lead to a statistically significant decrease for a given read-out (FLuc, RLuc, and PI) compared to baseline. “Baseline” was not in all cases defined by untreated cells, but may also refer to, e.g., a state of increased activity due to low, non-toxic compound concentrations.
# ESC-derived neurons = tested on: ESC-derived neurons
# Description: as §1, §2, §3, §4
# [1] = tested on: Tubulin α1 (Tα1) promoter; assay: cells
# Description: (§5) Dual luciferase expressing CGR8-2Luc cells were obtained by transduction of mouse ESC CGR8 cells with the 2K7 EFS-Renilla Luciferase (RLuc)/Talpha1-Firefly Luciferase (FLuc) vector as previously described (Suter et al. [2006], [2009]); EFS corresponds to the short promoter of the eukaryotic translation elongation factor 1 alpha (EF1α), and Talpha1 to the Tubulin α1 (Tα1) promoter. Tα1 was selected as a promoter active in neurons, including early stages of neural differentiation. EF1α was originally selected to function as a constitutive promoter; however, it responds to cellular differentiation as well as to various chemicals, as previously shown (Kern et al. [2013]). Cells were cultured on 0.1 % gelatin-coated dishes in CGR8-2luc maintenance medium: BHK21 medium, supplemented with 10 % fetal calf serum, L-glutamine, non-essential amino acids, penicillin/streptomycin, and leukemia inhibitory factor (LIF). CGR8 cells were grown in a feeder-independent manner (embryonic pluripotent stem cells, ESCs) as described in protocol 1 (Fig. 1) before testing compounds of interest.
# as §1, §2
# (§6) Luciferase activities were measured with a Dual-Luciferase™ Reporter system kit. CGR8-2Luc ES cells were lysed in 96-well plates according to the manufacturer’s instructions. Luminescence measurements were performed on a Fluostar Optima reader. Luminescence counts were expressed as percentage of promoter activity normalized by comparison with the control wells treated by DMSO.
# EF1α promoter = tested on: EF1α promoter
# Description: as §5, §1, §2, §6
# [2] = tested on: Tubulin α1 (Tα1) promoter
# Description: as §5, §1, §2, §6
# [3] = tested on: ESCs and ESC-derived neurons; assay: Dual luminescence reporter test system, all readouts in ESCs and ESC-derived neurons
# Description: as §1, with “neurons.” for “neurons. CGR8-2Luc cells were co-cultured with MS5 cells to induce neural differentiation in DMEM medium containing 15 % KO-serum, NEAA, β-mercaptoethanol, and P/S. On day 5, cells were detached and seeded on polyornithine-coated plates in DMEM medium containing N2 supplement, bFGF, and P/S; compound exposure was from day 6 to day 8”
# as §2, with “At” for “To test compounds on ESC-derived neurons, neuronal differentiation was carried out as previously described (Suter et al. [2009]; Xu et al. [2014]). Briefly, CGR8-2Luc cells were seeded on irradiated bone marrow-derived stromal MS5 cells and cultivated for 4 days in DMEM medium containing 15 % Knock-out™ Serum Replacement, non-essential amino acids, beta-mercaptoethanol, and penicillin/streptomycin. At”
# Luciferase activities were measured with a Dual-Luciferase™ Reporter system kit. CGR8-2Luc ES cells were lysed in 96-well plates according to the manufacturer’s instructions. Luminescence measurements were performed on a Fluostar Optima reader. Luminescence counts were expressed as percentage of promoter activity normalized by comparison with the control wells treated by DMSO. […] parameters were measured in homogenates of ESCs and in ESC-derived neurons: (1) FLuc, reflecting the activity of early neural promoter Tα1. FLuc increases during neuronal differentiation. Many neurotoxic compounds may affect FLuc expression, either through impact on neuronal differentiation, through changes of neuronal gene expression, or through killing of neurons.
# as §3, with “PI” for “After measurement of luciferase activity, DNA quantity was determined by PI assay, as previously described (Xu et al. [2014]). PI”
# To describe the shape of different concentration–response curves, arbitrary scores were assigned as follows: 0 for “no change,” 1 for “down-stroke,” 2 for “bimodal profile,” and 3 for “up-stroke” (Fig. S1). A curve was classified as “down-stroke” or “up-stroke” if the change in response values comparative to control was statistically significant (p value <0.05, one-way ANOVA with post hoc Dunnett) with an additional requirement of a 30 % decrease or increase of mean response value relative to controls, respectively. If the absolute change in mean response values was below 30 % the curve was classified as “no change.” A curve was classified as “bimodal” if first up-stroke and subsequently down-stroke was observed.
# [4] = Table S1, three classes; ref per compound in the footnotes of Table S1; cited from earlier work
# [5] = cited from earlier work
# [6] = undifferentiated ESCs, 48 h exposure, PI assay (cytotoxicity)
# [7] = ESC-derived neurons, 48 h exposure, PI assay (cytotoxicity)
# [8] = ESC-derived neurons, 48 h exposure
# [9] = undifferentiated ESCs, 48 h exposure
# [10] = undifferentiated ESCs, 48 h exposure, lowest tested concentration with statistically significant decrease
# [11] = reporter activity changes in the non-cytotoxic concentration range, highest possible number 4
SMILES,LOAEL ESC DNA (CGR8-2Luc ESCs; [6]) [µM],LOAEL Neurons DNA (ESC-derived neurons; [7]) [µM],"LOAEL Neurons Tα1 [1, 8] [µM]",LOAEL Neurons EF1α (EF1α promoter; [8]) [µM],LOAEL ESC EF1α (EF1α promoter; [9]) [µM],"LOAEL ESC Tα1 [2, 10] [µM]",result in the dual luminescence reporter test system [3],"Number of non-cytotoxic changes ([3]; mouse, 48 h)",class based on clinical evidence for neurotoxicity [4],LOAEL ESC DNA (CGR8-2Luc ESCs; mouse) [µM],LOAEL Neurons DNA (ESC-derived neurons; mouse) [µM],LOAEL Neurons Tα1 ([1]; mouse) [µM],LOAEL ESC EF1α (EF1α promoter; mouse) [µM],LOAEL Neurons EF1α (EF1α promoter; mouse) [µM],LOAEL ESC Tα1 ([2]; mouse) [µM],also measured
OC[C@@H](O)[C@@H](O)[C@H](O)[C@H](O)CO [D-mannitol],>50,>50,>50,>50,>50,>50,negative,0,Non-neurotoxic,,,,,,,
CN(C)CCCN1c2ccccc2Sc2ccc(Cl)cc21 [Chlorpromazine],20,20,1,2,20,20,,1,Well-established (developmental),,,,,,,
Clc1cc(Cl)c(-c2cc(Cl)c(Cl)cc2Cl)cc1Cl [PCB-153],,,,,,,,,Well-established (developmental),,,,,,,"effect on cell number in neurons (ESC-derived neurons): without affecting the number of cells; effect on neural promoter activity in neurons [1]: decreased; effect on general promoter activity in neurons (EF1α promoter): decreased; result in the dual luminescence reporter test system ([3]; ESCs and neurons, FLuc, RLuc, PI): potentially neurotoxic; Number of non-cytotoxic changes [3, 11]: 2; Concentration in humans (human exposure concentration) ([5]; human exposure concentration, ref Zimmer et al. ([2014])): 0.0003-0.002^k (human exposure concentration) µM"
[CH3][Sn]([CH3])([CH3])[Cl] [Trimethyltin chloride],5,5,5,0.05,5,5,,,Well-established (developmental),,,,,,,"EF1α promoter LOAEL in neurons (EF1α promoter; [8]): 50 nM; Number of non-cytotoxic changes [3, 11]: 1"
Nc1ccc(S(=O)(=O)Nc2ncccn2)cc1 [Sulfadiazine],,,,,,,,0,Possibly (developmental),>50,>50,>50,>50,>50,>50,Concentration in humans ([5]; ref Zimmer et al. ([2014])): 320^k µM
O=C(O)c1cc[c]([Hg][Cl])cc1 [4-chloromercuric benzoic acid],,,,,,,,,Possibly (developmental),,,,,,,LOAEL ESC DNA (CGR8-2Luc ESCs): 5 µM; LOAEL Neurons DNA (ESC-derived neurons): 100 µM; LOAEL Neurons Tα1 [1]: 10 µM; LOAEL ESC EF1α (EF1α promoter): 5 µM; LOAEL Neurons EF1α (EF1α promoter): 100 µM; LOAEL ESC Tα1 [2]: 5 µM; Number of non-cytotoxic changes [3]: 1
O=C(O)c1cccnc1 [Nicotinic acid],,,,,,,negative,0,Non-neurotoxic,>50,>50,>50,>50,>50,>50,
COCCCOc1cc(C[C@@H](C[C@H](N)[C@@H](O)C[C@H](C(=O)NCC(C)(C)C(N)=O)C(C)C)C(C)C)ccc1OC [Aliskiren],>50,>50,>50,>50,>50,>50,,0,,,,,,,,Concentration in humans ([5]; ref Zimmer et al. ([2014])): 0.33^k µM
O=C1NS(=O)(=O)c2ccccc21 [Saccharin],,,,,,,negative,0,Non-neurotoxic,>50,>50,>50,>50,>50,>50,Concentration in humans ([5]; ref Sweatman et al. ([1981])): 218^c µM

# Source: paper PMC5225183, “Fingerprinting of neurotoxic compounds using a mouse embryonic stem cell dual luminescence reporter assay” (Archives of Toxicology, 2016)
